Experimental findings from patent US12037612B2, “High throughput reaction assembly” (priority 2018, dated 2024) are described below.

Experiment [1] has as its target T1, Taq polymerase (Thermus aquaticus, UniProt P19821).
T1 construct: purchased New England Biolabs, Ipswich, MA
Kind of experiment: qPCR (GAPDH detection) with dye added directly into the qPCR reaction. Conditions: increasing dye in the qPCR reaction, final concentration 0.004%, 0.008%, 0.012%, 0.016%, 0.023%; Jurkat total RNA template. In kind it is biochemical. As to the method:
Dyes at a concentration of 0.0003% in a qPCR mix were found not to inhibit Taq polymerase in a qPCR mix in a manner that was detrimental to the reaction. 5-log dilutions of Jurkat total RNA (1 ug, 100 ng, 10 ng, 1 ng, 100 pg) were used as the template RNA for cDNA synthesis using a commercially available thermostable reverse transcriptase (Luna RT). […] 10 minutes, and 95° C. 1 minute. 1 ul cDNA library was added to a qPCR reaction mixture containing Taq polymerase (Luna® Universal qPCR Master Mix (New England Biolabs, Ipswich, MA)) and specific primers were added to detect glyceraldehyde 3-phosphate dehydrogenase (GAPDH) in the presence of xylene cyanol at a final concentration of 0%, 0.004%, 0.008%, 0.012%, 0.016%, or 0.023%, or Xylene cyanol and tartrazine both in the concentration range described above.
A general note: Quantitative PCR measures a nucleic acid by following its amplification.

Experiment [2] concerns reverse transcriptase (Luna RT). Kind of experiment: cDNA synthesis with dye in the cDNA reaction, read out by qPCR (GAPDH). In kind it is biochemical. Conditions: increasing dye in the cDNA reaction, final concentration 0.004%, 0.008%, 0.012%, 0.016%, 0.023%; Jurkat total RNA template. As to the method: 5-log dilutions of Jurkat total RNA (1 ug, 100 ng, 10 ng, 1 ng, 100 pg) were used as the template RNA for cDNA synthesis using Luna RT in the presence of xylene cyanol at a final concentration of 0%, 0.004%, 0.008%, 0.012%, 0.016%, or 0.023%, or Xylene cyanol and tartrazine both in the concentration range described above. […] 10 minutes, and 95° C. 1 minute. 1 ul cDNA library was added to a qPCR reaction mixture containing Taq polymerase and specific primers were added to detect GAPDH.

Each structure is given as a SMILES string.

T1 sequence (P19821 whole entry): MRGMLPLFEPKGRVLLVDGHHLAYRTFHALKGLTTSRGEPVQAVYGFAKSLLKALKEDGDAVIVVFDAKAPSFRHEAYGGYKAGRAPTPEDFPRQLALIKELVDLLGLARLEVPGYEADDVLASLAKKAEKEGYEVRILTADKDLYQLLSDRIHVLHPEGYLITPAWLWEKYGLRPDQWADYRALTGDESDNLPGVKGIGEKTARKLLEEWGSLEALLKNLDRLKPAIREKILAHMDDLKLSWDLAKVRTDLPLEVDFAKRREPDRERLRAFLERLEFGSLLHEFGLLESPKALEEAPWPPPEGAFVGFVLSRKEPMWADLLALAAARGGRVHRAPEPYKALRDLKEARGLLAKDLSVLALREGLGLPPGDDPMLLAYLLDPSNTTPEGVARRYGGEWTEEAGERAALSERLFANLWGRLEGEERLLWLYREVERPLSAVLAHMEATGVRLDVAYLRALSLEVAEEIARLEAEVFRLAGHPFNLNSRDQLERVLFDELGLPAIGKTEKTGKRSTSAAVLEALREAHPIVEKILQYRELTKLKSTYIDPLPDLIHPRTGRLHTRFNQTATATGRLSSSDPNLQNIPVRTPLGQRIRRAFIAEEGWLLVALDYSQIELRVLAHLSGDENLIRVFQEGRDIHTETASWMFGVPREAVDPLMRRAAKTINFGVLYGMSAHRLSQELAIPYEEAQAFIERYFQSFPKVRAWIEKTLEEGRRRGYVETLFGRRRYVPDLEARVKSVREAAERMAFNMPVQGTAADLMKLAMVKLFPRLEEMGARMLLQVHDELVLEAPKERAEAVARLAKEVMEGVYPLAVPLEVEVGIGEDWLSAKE

As to `CCN=C1C=CC(=C(c2ccc(NCC)c(C)c2)c2ccc(S(=O)(=O)[O-])cc2S(=O)(=O)O)C=C1C.[Na+]` [xylene cyanol], the “Cq value in qPCR / inhibition of Taq polymerase” value in experiment [1] is “higher Cq value, indicating stronger inhibition of Taq polymerase”. Also, in experiment [2], the “Cq value / inhibition of the reverse transcriptase” value was “did not change the Cq value, indicating that no detectable inhibition of the reverse transcriptase occurred”.
